Reference: paper PMC9389462, “Small molecule MMRi62 targets MDM4 for degradation and induces leukemic cell apoptosis regardless of p53 status” (Frontiers in Oncology, 2022)

Biological target: T1, MDM4 (Homo sapiens, UniProt O15151+Q00987)
T1 construct: RING domain (MDM2-MDM4 RING heterodimer, pETDuet, E. coli); with MDM2 (RING domain)
Experiment: microscale thermophoresis on preformed, dye-labelled MDM2-MDM4 RING heterodimer
Assay type: binding

T1 sequence (O15151 416-490 limits assumed): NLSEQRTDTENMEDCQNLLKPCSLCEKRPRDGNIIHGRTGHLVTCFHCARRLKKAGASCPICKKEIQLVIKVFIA
T1 sequence (Q00987 430-491 limits assumed): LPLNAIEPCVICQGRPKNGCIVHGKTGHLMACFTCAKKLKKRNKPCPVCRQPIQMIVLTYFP

| Kd [nM] | Compound |
| --- | --- |
| ~140 | Oc1c(C(Nc2ccccn2)c2cccc(Cl)c2Cl)ccc2cccnc12 (racemic) [MMRi62] |
| ~896 | O=C(O)c1ccc(C(Nc2ccccn2)c2cc(Cl)c3cccnc3c2O)cc1 (racemic) [MMRi67] |
